ChEMBL document CHEMBL5352412, “Discovery of 1,2-diphenylethene derivatives as human DNA topoisomerase II catalytic inhibitors and antitumor agents” (Eur J Med Chem, 2022)
Several values for one entry are separate records, joined by “and”; a condition that tells them apart may be missing. Equal values may be shown once. Activity calls are given as the source filed them. The calls are words filed in the database; no cut-off is given here.

Tests used:
[1] = Selectivity index, ratio of IC50 for human BEAS-2B cells to IC50 for human A549 cells; format: toxicity; details: BEAS-2B cells versus A549 cells, read-out: Ratio IC50
[2] = Selectivity index, ratio of IC50 for human HL-7702 cells to IC50 for human HCT-116 cells; format: toxicity; details: HL-7702 cells versus HCT-116 cells, read-out: Ratio IC50
[3] = Selectivity index, ratio of IC50 for human HL-7702 cells to IC50 for human PC-3 cells; format: toxicity; details: HL-7702 cells versus PC-3 cells, read-out: Ratio IC50
[4] = Antiproliferative activity against human BEAS-2B cells incubated for 72 hrs by CCK8 assay; format: toxicity, cell-based
DNA topoisomerase 2-beta = DNA topoisomerase 2-beta (Homo sapiens, UniProt Q02880); test: Inhibition of human topoisomerase 2-beta assessed as reduction in relaxation of pBR322 DNA measured after 30 mins by agarose gel electrophoresis method
Chain of DNA topoisomerase 2-beta (Q02880 whole entry): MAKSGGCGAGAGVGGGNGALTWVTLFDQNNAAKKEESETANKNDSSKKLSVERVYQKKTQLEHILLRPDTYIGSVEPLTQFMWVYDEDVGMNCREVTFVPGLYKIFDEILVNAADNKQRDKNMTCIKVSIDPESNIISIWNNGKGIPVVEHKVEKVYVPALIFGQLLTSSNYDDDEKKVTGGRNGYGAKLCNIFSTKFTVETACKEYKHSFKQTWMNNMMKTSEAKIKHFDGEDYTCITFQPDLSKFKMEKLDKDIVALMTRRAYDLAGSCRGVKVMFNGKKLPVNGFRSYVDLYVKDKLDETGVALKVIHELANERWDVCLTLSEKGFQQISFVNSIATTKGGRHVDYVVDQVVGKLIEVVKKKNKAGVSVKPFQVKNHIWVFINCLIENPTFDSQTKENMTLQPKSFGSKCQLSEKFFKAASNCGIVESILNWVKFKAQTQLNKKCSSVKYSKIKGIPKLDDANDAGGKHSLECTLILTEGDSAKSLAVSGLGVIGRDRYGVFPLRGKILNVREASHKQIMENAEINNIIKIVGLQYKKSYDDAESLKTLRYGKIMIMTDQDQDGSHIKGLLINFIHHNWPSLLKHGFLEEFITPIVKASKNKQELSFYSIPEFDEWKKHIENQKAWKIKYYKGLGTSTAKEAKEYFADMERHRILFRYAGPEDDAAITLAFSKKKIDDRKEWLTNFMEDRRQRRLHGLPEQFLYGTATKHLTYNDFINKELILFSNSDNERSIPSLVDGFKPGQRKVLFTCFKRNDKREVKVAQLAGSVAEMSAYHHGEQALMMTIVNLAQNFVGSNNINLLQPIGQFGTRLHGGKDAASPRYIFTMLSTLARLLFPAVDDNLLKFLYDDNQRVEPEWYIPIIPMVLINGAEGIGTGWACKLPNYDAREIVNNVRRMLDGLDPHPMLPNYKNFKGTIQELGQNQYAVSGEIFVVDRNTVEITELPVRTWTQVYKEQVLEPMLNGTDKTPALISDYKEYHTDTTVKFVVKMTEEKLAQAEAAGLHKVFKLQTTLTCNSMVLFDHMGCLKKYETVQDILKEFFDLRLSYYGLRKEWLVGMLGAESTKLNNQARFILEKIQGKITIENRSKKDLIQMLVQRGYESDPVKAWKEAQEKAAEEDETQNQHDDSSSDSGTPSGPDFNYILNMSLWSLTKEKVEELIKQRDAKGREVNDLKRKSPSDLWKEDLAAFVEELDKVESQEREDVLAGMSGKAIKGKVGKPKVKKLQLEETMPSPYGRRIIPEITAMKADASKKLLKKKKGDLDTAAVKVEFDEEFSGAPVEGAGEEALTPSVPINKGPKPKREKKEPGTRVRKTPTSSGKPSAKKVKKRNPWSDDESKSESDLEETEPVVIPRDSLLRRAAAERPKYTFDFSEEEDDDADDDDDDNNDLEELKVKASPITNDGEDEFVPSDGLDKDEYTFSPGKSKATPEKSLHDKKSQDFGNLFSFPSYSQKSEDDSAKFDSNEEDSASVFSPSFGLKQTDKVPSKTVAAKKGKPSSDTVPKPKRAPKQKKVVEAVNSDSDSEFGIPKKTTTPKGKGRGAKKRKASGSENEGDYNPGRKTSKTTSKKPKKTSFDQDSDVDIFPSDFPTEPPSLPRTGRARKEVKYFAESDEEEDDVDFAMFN

HeLa = test: Antiproliferative activity against human HeLa cells incubated for 72 hrs by CCK8 assay; format: functional, cell-based
Homo sapiens [5] = species: Homo sapiens; test: Selectivity index, ratio of IC50 for human CCL-226 cells to IC50 for human A549 cells
Homo sapiens [6] = species: Homo sapiens; test: Selectivity index, ratio of IC50 for human CCL-226 cells to IC50 for human HCT-116 cells
[7] = target: T1, DNA topoisomerase 2-alpha (Homo sapiens, UniProt P11388); test: Inhibition of human topoisomerase 2-alpha assessed as reduction in relaxation of pBR322 DNA measured after 30 mins by agarose gel electrophoresis method
T1 sequence (P11388 whole entry): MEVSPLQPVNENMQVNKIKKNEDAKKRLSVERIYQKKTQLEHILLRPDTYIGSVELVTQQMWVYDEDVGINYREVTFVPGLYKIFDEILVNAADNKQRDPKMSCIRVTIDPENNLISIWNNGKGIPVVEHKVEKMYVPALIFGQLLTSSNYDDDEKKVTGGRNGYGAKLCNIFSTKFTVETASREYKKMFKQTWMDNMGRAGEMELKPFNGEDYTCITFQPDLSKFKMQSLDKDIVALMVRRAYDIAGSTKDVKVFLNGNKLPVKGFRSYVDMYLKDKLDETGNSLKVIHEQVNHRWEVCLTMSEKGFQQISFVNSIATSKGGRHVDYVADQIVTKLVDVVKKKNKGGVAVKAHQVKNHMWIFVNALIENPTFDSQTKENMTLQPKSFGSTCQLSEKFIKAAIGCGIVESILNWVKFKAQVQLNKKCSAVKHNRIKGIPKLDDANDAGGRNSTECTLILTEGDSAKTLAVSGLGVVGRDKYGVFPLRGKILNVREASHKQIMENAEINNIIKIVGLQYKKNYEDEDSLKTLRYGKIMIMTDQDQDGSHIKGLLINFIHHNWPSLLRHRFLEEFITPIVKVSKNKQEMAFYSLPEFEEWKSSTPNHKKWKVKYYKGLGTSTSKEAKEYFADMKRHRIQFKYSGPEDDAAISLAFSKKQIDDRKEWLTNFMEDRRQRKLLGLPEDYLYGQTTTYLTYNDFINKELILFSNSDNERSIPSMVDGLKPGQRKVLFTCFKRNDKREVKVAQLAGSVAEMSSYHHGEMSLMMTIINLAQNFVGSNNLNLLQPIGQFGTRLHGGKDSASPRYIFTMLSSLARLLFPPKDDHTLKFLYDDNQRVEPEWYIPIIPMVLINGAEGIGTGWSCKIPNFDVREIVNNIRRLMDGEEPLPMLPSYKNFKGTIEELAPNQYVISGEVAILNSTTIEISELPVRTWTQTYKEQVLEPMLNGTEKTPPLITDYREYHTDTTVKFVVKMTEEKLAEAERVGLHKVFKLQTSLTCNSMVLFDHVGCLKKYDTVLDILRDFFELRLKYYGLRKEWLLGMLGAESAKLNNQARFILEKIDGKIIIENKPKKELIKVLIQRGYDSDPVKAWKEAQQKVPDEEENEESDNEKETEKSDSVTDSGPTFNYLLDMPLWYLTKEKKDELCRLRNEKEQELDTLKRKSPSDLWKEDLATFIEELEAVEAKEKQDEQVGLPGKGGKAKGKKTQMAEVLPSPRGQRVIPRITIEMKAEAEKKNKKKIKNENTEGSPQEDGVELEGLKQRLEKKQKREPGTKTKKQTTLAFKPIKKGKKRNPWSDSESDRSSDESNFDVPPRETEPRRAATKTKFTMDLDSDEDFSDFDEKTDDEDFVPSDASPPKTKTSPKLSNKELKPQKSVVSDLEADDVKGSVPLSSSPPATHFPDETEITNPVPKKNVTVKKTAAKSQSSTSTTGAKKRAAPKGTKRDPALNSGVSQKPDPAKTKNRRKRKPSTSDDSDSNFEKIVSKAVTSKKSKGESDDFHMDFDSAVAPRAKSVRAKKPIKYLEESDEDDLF

[8] = Selectivity index, ratio of IC50 for human BEAS-2B cells to IC50 for human HeLa cells; format: toxicity; details: BEAS-2B cells versus HeLa cells, read-out: Ratio IC50
[9] = Selectivity index, ratio of IC50 for human HL-7702 cells to IC50 for human MDA-MB-231 cells; format: toxicity; details: HL-7702 cells versus MDA-MB-231 cells, read-out: Ratio IC50
[10] = Selectivity index, ratio of IC50 for human HL-7702 cells to IC50 for human HepG2 cells; format: toxicity; details: HL-7702 cells versus HepG2 cells, read-out: Ratio IC50
[11] = Selectivity index, ratio of IC50 for human BEAS-2B cells to IC50 for human MDA-MB-231 cells; format: toxicity; details: BEAS-2B cells versus MDA-MB-231 cells, read-out: Ratio IC50
Homo sapiens [12] = species: Homo sapiens; test: Selectivity index, ratio of IC50 for human CCL-226 cells to IC50 for human HepG2 cells
Homo sapiens [13] = species: Homo sapiens; test: Selectivity index, ratio of IC50 for human CCL-226 cells to IC50 for human MDA-MB-231 cells
PC-3 = test: Antiproliferative activity against human PC-3 cells incubated for 72 hrs by CCK8 assay; format: functional, cell-based; details: PC-3, 72 h
HepG2 [14] = test: Antiproliferative activity against human HepG2 cells incubated for 72 hrs by CCK8 assay; format: functional, cell-based
A549 = test: Antiproliferative activity against human A549 cells incubated for 72 hrs by CCK8 assay; format: functional, cell-based; details: A549, 72 h
[15] = Antiproliferative activity against human CCL-226 cells incubated for 72 hrs by CCK8 assay; format: toxicity, cell-based
[16] = Selectivity index, ratio of IC50 for human BEAS-2B cells to IC50 for human HepG2 cells; format: toxicity; details: BEAS-2B cells versus HepG2 cells, read-out: Ratio IC50
HCT-116 = test: Antiproliferative activity against human HCT-116 cells incubated for 72 hrs by CCK8 assay; format: functional, cell-based; details: HCT-116, 72 h
[17] = Selectivity index, ratio of IC50 for human HL-7702 cells to IC50 for human HeLa cells; format: toxicity; details: HL-7702 cells versus HeLa cells, read-out: Ratio IC50
Homo sapiens [18] = species: Homo sapiens; test: Selectivity index, ratio of IC50 for human CCL-226 cells to IC50 for human HeLa cells
MDA-MB-231 = test: Antiproliferative activity against human MDA-MB-231 cells incubated for 72 hrs by CCK8 assay; format: functional, cell-based
[19] = Selectivity index, ratio of IC50 for human HL-7702 cells to IC50 for human A549 cells; format: toxicity; details: HL-7702 cells versus A549 cells, read-out: Ratio IC50
[20] = Selectivity index, ratio of IC50 for human BEAS-2B cells to IC50 for human PC-3 cells; format: toxicity; details: BEAS-2B cells versus PC-3 cells, read-out: Ratio IC50
Homo sapiens [21] = species: Homo sapiens; test: Selectivity index, ratio of IC50 for human CCL-226 cells to IC50 for human PC-3 cells
[22] = target: T1, DNA topoisomerase 2-alpha; test: Inhibition of human topoisomerase 2-alpha assessed as reduction in relaxation of pBR322 DNA at 25 uM measured after 30 mins by agarose gel electrophoresis method relative to control
[23] = target: T1, DNA topoisomerase 2-alpha; test: Inhibition of human topoisomerase 2-alpha assessed as reduction in relaxation of pBR322 DNA at 100 uM measured after 30 mins by agarose gel electrophoresis method relative to control
[24] = Selectivity index, ratio of IC50 for human BEAS-2B cells to IC50 for human HCT-116 cells; format: toxicity; details: BEAS-2B cells versus HCT-116 cells, read-out: Ratio IC50
[25] = Antiproliferative activity against human HL7702 cells incubated for 72 hrs by CCK8 assay; format: toxicity, cell-based; details: HL7702 (L02) cells
[26] = target: T1, DNA topoisomerase 2-alpha; test: Poison activity at human topoisomerase 2-alpha assessed as linear DNA formation at 100 to 200 microM; details: dose 100-200 µM
[27] = target: T1, DNA topoisomerase 2-alpha; test: Inhibition of human topoisomerase 2-alpha using pBR322 DNA as substrate incubated for 30 mins in presence of 0.5 to 5 mM ATP (reference value: 2.9 microM)
[28] = target: T1, DNA topoisomerase 2-alpha; test: Inhibition of human topoisomerase 2-alpha assessed as DNA intercalation at 100 to 200 uM using pBR322 DNA as substrate measured after 30 mins by agarose gel electrophoresis analysis; details: dose 100-200 µM
[29] = target: T1, DNA topoisomerase 2-alpha; test: Inhibition of human topoisomerase 2-alpha using pBR322 DNA as substrate incubated for 1 hr in presence of ATP by malachite green phosphate method
HepG2 [30] = test: Upregulation of gamma-H2AX level in human HepG2 cells incubated for 4 hrs by Western blotting analysis; format: functional, cell-based
HepG2 [31] = test: Induction of cell cycle arrest in human HepG2 cells assessed as accumulation of cells at G1 phase at 1 uM incubated for 24 hrs by PI staining based flow cytometry analysis (reference value: 54%); format: functional
[32] = Toxicity in C57BL/6J mouse assessed as animal death at 500 mg/kg administered via gavage twice at day 1 and measured for 7 days; format: organism-based; details: in vivo, po, time 7 day, read-out: Activity
HepG2 [33] = test: Induction of cell cycle arrest in human HepG2 cells assessed as accumulation of cells at G2/M phase at 1 uM incubated for 24 hrs by PI staining based flow cytometry analysis (reference value: 17.5%); format: functional
HepG2 [34] = test: Induction of apoptosis in human HepG2 cells assessed as early apoptotic cells at 5 uM incubated for 24 hrs by annexin-V FITC and PI staining based flow cytometry analysis (reference value: 3.7%); format: functional
HepG2 [35] = test: Induction of cell cycle arrest in human HepG2 cells assessed as accumulation of cells at S phase at 1 uM incubated for 24 hrs by PI staining based flow cytometry analysis (reference value: 28.2%); format: functional
HepG2 [36] = test: Induction of apoptosis in human HepG2 cells assessed as necrotic cells at 5 uM incubated for 24 hrs by annexin-V FITC and PI staining based flow cytometry analysis (reference value: 0.2%); format: functional
[37] = Toxicity in C57BL/6J mouse assessed as change in body weight at 500 mg/kg administered via gavage twice at day 1 and measured for 7 days; format: organism-based; details: in vivo, po, 168 h, time 7 day
HepG2 [38] = test: Induction of apoptosis in human HepG2 cells assessed as viable cells at 5 uM incubated for 24 hrs by annexin-V FITC and PI staining based flow cytometry analysis (reference value: 93.8%); format: functional; details: read-out: Activity
HepG2 [39] = test: Induction of apoptosis in human HepG2 cells assessed as late apoptotic cells at 5 uM incubated for 24 hrs by annexin-V FITC and PI staining based flow cytometry analysis (reference value: 2.3%); format: functional

SMILES	IC50 (DNA topoisomerase 2-beta) [µM]	IC50 (HeLa) [µM]	Ratio IC50 (Homo sapiens [5])	Ratio IC50 (Homo sapiens [6])	IC50 [7] [µM]	IC50 (PC-3) [µM]	IC50 (HepG2 [14]; Homo sapiens, HepG2, 72 h) [µM]	IC50 (A549) [µM]	IC50 (HCT-116) [µM]	IC50 (MDA-MB-231; Homo sapiens, MDA-MB-231, 72 h) [µM]	inhibition [22]	inhibition [23]	selectivity ratio [1]	selectivity ratio [2]	selectivity ratio [3]	IC50 at 72 h [4] [µM]	selectivity ratio [8]	selectivity ratio [9]	IC50 at 72 h [15] [µM]	IC50 at 72 h [25] [µM]	further results
COc1cc([C@@H]2c3cc4c(cc3[C@@H](O[C@@H]3O[C@@H]5CO[C@@H](C)O[C@H]5[C@H](O)[C@H]3O)[C@H]3COC(=O)[C@H]23)OCO4)cc(OC)c1O [ETOPOSIDE]	–	1.5	–	–	–	3	8.1	15.1	2.4	5.6	–	43.3%	–	–	–	21	–	–	20.8	39.1	Activity ([26]; filed as activator): Active; Activity (HepG2 [31]): 1.1%; mortality at 168 h [32]: 33.3%; Activity (HepG2 [33]): 25.2%; Activity (HepG2 [34]): 10.7%; Activity (HepG2 [35]): 73.7%; Activity (HepG2 [36]): 0.6%; Activity [37]: Toxic; viability at 5 µM (HepG2 [38]): 76.9%; inhibition [28]: inactive; Activity (HepG2 [39]): 11.8%; Activity (HepG2 [30]): Active
Oc1cc(O)cc(/C=C/c2cc(-c3ccoc3)ccc2O)c1	–	–	–	–	59.8	–	20.5	–	–	20.1	21.3%	82.1%	–	–	–	–	–	–	–	–	–

The next lines start with results.

IC50 (DNA topoisomerase 2-beta) [µM]	IC50 (HeLa) [µM]	Ratio IC50 (Homo sapiens [5])	Ratio IC50 (Homo sapiens [6])	IC50 [7] [µM]	IC50 (PC-3) [µM]	IC50 (HepG2 [14]; Homo sapiens, HepG2, 72 h) [µM]	IC50 (A549) [µM]	IC50 (HCT-116) [µM]	IC50 (MDA-MB-231; Homo sapiens, MDA-MB-231, 72 h) [µM]	inhibition [22]	inhibition [23]	SMILES	selectivity ratio [1]	selectivity ratio [2]	selectivity ratio [3]	IC50 at 72 h [4] [µM]	selectivity ratio [8]	selectivity ratio [9]	IC50 at 72 h [15] [µM]	IC50 at 72 h [25] [µM]	further results
195	1.9	> 9.2	> 9.2	16.6	2.3	2.4	4.1	2.1	4.1	71.2% and 61.6%	82.6% and 76.1%	O=C(/C=C/c1ccccc1)Nc1ccc(/C=C/c2cc(O)cc(O)c2)cc1	> 9.2	> 9.2	> 9.2	> 50	> 9.2	> 9.2	> 50	37.8	selectivity ratio [10]: > 9.2; selectivity ratio [11]: > 9.2; Ratio IC50 (Homo sapiens [12]): > 9.2; Ratio IC50 (Homo sapiens [13]): > 9.2; IC50 (HepG2 [14]; hepg2): 2.9 µM; selectivity ratio [16]: > 9.2; selectivity ratio [17]: > 9.2; Ratio IC50 (Homo sapiens [18]): > 9.2; IC50 (MDA-MB-231; mda-mb-231): 3.6 µM; selectivity ratio [19]: > 9.2; selectivity ratio [20]: > 9.2; Ratio IC50 (Homo sapiens [21]): > 9.2; selectivity ratio [24]: > 9.2
17.2	0.5	> 28.1	> 28.1	3.3	0.9	0.7	1	0.6	0.8	86.2%	81%	O=C(/C=C/c1ccccc1)Nc1ccc(-c2ccc3cc(O)ccc3c2)cc1	> 28.1	> 28.1	> 28.1	26.9	> 28.1	> 28.1	> 50	> 50	Activity [26]: inactive; IC50 [27]: 8.6 µM; selectivity ratio [10]: > 28.1; selectivity ratio [11]: > 28.1; Ratio IC50 (Homo sapiens [12]): > 28.1; Ratio IC50 (Homo sapiens [13]): > 28.1; inhibition [28]: inactive; selectivity ratio [16]: > 28.1; selectivity ratio [17]: > 28.1; Ratio IC50 (Homo sapiens [18]): > 28.1; selectivity ratio [19]: > 28.1; selectivity ratio [20]: > 28.1; inhibition [29]: Dose-Dependent Effect; Activity (HepG2 [30]): inactive; Ratio IC50 (Homo sapiens [21]): > 28.1; selectivity ratio [24]: > 28.1
–	–	–	–	–	–	5.3	–	–	15.9	43.2%	87.4%	O=C(/C=C/c1ccccc1)Nc1ccc(-c2nc3ccc(O)cc3s2)cc1	–	–	–	–	–	–	–	–	–
